Test results published in paper PMC6099553, “Novel Structural Insight into Inhibitors of Heme Oxygenase-1 (HO-1) by New Imidazole-Based Compounds: Biochemical and In Vitro Anticancer Activity Evaluation” (Molecules : A Journal of Synthetic Chemistry and Natural …, 2018).

Experiments:
HO-2 [1] = test system: HO-2; parameters: method as in PMID 23097500; conditions: Figure 1; cited from earlier work
HO-1 [2] = test system: HO-1; parameters: method as in PMID 23097500; conditions: Figure 1; cited from earlier work
MDA-MB-231 cells = assay: In vitro cytotoxicity, sulforhodamine B assay, MDA-MB-231; assay type: cell-based; conditions: Homo sapiens, hormone-resistant breast cancer cells, 72 h, SRB
Method: (§1) MDA-MB-231 cells (hormone resistant), MCF-7 (hormone sensitive), PC3 cells (hormone resistant), DU145 cells (hormone resistant), LnCap cells (hormone sensitive), B16, and HEK cells were maintained in complete growth media (DMEM/Ham’s F12 supplemented with 10% fetal bovine serum, […], 100 units/mL penicillin, 100 units/mL of streptomycin, and 2.2 g/L of NaHCO3) at 37 °C in a humidified atmosphere of 5% CO2. For all procedures, cells were harvested using TrypLE Express (Life Technologies, Auckland, New Zealand).
(§2) To test the cytotoxic effect of HO inhibitors, cells (8 × 10^3 cells/well) were seeded into 96-well plates and incubated for 24 h. This was followed by treatment with HO inhibitors at the concentrations 1.1–200 μM (1.1–1000 μM for HEK cells) of compound 1. In addition, the cytotoxicity of doxorubicin (5 μM, 10 μM, and 30 μM) and a combination of doxorubicin 5 μM and 37 μM 1 was assessed using B16 cells. In all experiments, the cells were incubated for 72 h. Following the incubation, cells were fixed using 10% trichloroacetic acid (TCA). Cytotoxicity was determined using the sulforhodamine B assay as previously described. […] Treatments were performed in triplicate and data represents mean of three independent experiments.

PC3 cells = assay: In vitro cytotoxicity, sulforhodamine B assay, PC3; assay type: cell-based; conditions: Homo sapiens, PC-3; hormone-resistant prostate cancer cells, 72 h, SRB
Method: as §1, §2

B16 cells = assay: In vitro cytotoxicity, sulforhodamine B assay, B16 (alone and with doxorubicin); assay type: cell-based, murine; conditions: for IC50: murine melanoma cells, 72 h, SRB
Method: as §1
as §2, with “In addition, the cytotoxicity of doxorubicin (5 μM, 10 μM, and 30 μM) and a combination of doxorubicin 5 μM and 37 μM 1 was assessed using B16 cells.” left out
Figure 3 Cytotoxicity of compound 1 against MCF-7 and B16 cells. (A) MCF-7 (hormone-sensitive breast cancer cells) and (B) B16 (melanoma) cells were treated with 1.1–200 μM of compound 1 for 72 h. Control wells were treated with vehicle only (0.2% DMSO). At the end of treatment, cell number was determined using the sulforhodamine B assay. Data are expressed as mean ± SEM (n = 3). Non-linear regression and IC50 values determination were performed using GraphPad Prism 6.
Figure 4 Cytotoxicity of compound 1 in combination with different concentration of doxorubicin (doxo) against B16 cells. Data are expressed as mean ± SEM (n = 3). *** Significant vs. untreated control cells: p < 0.001.

HEK cells = assay: In vitro cytotoxicity, sulforhodamine B assay, HEK (healthy cells); assay type: cell-based, human
Method: as §1, §2

MCF-7 cells = assay: In vitro cytotoxicity, sulforhodamine B assay, MCF-7; assay type: cell-based; conditions: Homo sapiens, MCF7; hormone-sensitive breast cancer cells, 72 h, SRB
Method: as §1
To test the cytotoxic effect of HO inhibitors, cells (8 × 10^3 cells/well) were seeded into 96-well plates and incubated for 24 h. This was followed by treatment with HO inhibitors at the concentrations 1.1–200 μM (1.1–1000 μM for HEK cells) of compound 1. In addition, the cytotoxicity of doxorubicin (5 μM, 10 μM, and 30 μM) and a combination of doxorubicin 5 μM and 37 μM 1 was assessed using B16 cells. In all experiments, the cells were incubated for 72 h. Following the incubation, cells were fixed using 10% trichloroacetic acid (TCA). Cytotoxicity was determined using the sulforhodamine B assay as previously described. […]
Figure 3 Cytotoxicity of compound 1 against MCF-7 and B16 cells. […] At the end of treatment, cell number was determined using the sulforhodamine B assay. Data are expressed as mean ± SEM (n = 3). […]

LnCap cells = assay: In vitro cytotoxicity, sulforhodamine B assay, LnCap; assay type: cell-based; conditions: Homo sapiens, hormone-sensitive prostate cancer cells, 72 h, SRB
Method: as §1, §2

DU145 cells = assay: In vitro cytotoxicity, sulforhodamine B assay, DU145; assay type: cell-based; conditions: Homo sapiens, DU-145; hormone-resistant prostate cancer cells, 72 h, SRB
Method: as §1, §2

HO-1 [3] = molecular target: T1, HO-1 (Rattus norvegicus, UniProt P06762); assay: HO-1 inhibition, rat spleen microsomal fraction, bilirubin formation; assay type: biochemical; conditions: for IC50: rat spleen microsomes, mean ± SD, triplicate
T1 construct: selected in order to use the most native (i.e., closest to in vivo) forms of HO-1 and HO-2; from tissue; host or cells: spleen microsomal fraction of male Sprague-Dawley rats
T1 sequence (P06762 1-289): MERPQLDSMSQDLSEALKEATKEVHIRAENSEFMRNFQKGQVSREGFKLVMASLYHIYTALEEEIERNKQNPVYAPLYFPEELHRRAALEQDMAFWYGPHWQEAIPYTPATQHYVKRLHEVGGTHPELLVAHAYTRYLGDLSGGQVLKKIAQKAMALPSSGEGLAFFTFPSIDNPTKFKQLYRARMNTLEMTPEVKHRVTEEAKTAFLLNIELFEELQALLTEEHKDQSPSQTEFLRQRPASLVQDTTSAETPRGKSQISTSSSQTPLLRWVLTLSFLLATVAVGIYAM
Method: Inhibition activity assay for HO-1 was performed by extracting the enzyme from the rat spleen microsomal fraction. HO-1 activity was determined by measuring the formation of BR using the difference in absorbance at 464–530 nm, as described in the experimental section. Inhibition activity data are expressed as IC50 (μM) and obtained results are outlined in Table 2, utilizing Azalanstat as a reference compound.
HO-1 and HO-2 were obtained from rat spleen and brain, respectively, as the microsomal fraction prepared by differential centrifugation; the dominance of HO-1 protein in the rat spleen and of HO-2 in the rat brain has been well documented. These particular microsomal preparations were selected in order to use the most native (i.e., closest to in vivo) forms of HO-1 and HO-2. Spleen and brain (Sprague–Dawley rats) microsomal fractions were prepared according to the procedure outlined by Ryter et al.. The experiments reported in the present paper complied with current Italian law and met the guidelines of the Institutional Animal Care and Use Committee of University of Catania (Italy). The experiments were performed in male Sprague–Dawley albino rats (150 g body weight and age 45 d). They had free access to water and were kept at room temperature with a natural photo-period (12 h light-12 h dark cycle). For measuring HO-1 and HO-2 activities, each rat was sacrificed and their spleen and brain were excised and weighed. A homogenate (15%, w/v) of spleens and brains pooled from four rats was prepared in ice-cold HO-homogenizing buffer (50 mM Tris buffer, pH 7.4, containing 0.25 M sucrose) using a Potter–Elvehjem homogenizing system with a Teflon pestle. The microsomal fraction of rat spleen and brain homogenate was obtained by centrifugation at 10,000 rpm for 20 min at 4 °C, followed by centrifugation of the supernatant at 100,000 rpm for 60 min at 4 °C. The 100,000 rpm pellet (microsomes) was resuspended in 100 mM potassium phosphate buffer, pH 7.8, containing 2 mM MgCl2 with a Potter–Elvehjem homogenizing system. The rat spleen and brain microsomal fractions were divided into equal aliquots, placed into microcentrifuge tubes, and stored at −80 °C for up to 2 months. Protein concentration of the microsomal fraction was determined by Lowry method.
(§3) Liver cytosol has been used as a source of biliverdin reductase (BVR). […] The 100,000 rpm supernatant was saved and then stored in small amounts at −80 °C after its protein concentration was measured.
(§4) The HO-1 and HO-2 activities were determined by measuring the BR formation using the difference in absorbance at 464 to 530 nm as described by Ryter et al.. […] After recovering the chloroform phase, the amount of BR formed was measured with a double-beam spectrophotometer as OD464-530 nm (extinction coefficient, 40 mM/cm^−1 for BR). […]

HO-2 [4] = molecular target: T2, HO-2 (Rattus norvegicus, UniProt P23711); assay: HO-2 inhibition, rat brain microsomal fraction, bilirubin formation; assay type: biochemical; conditions: rat brain microsomes; mean ± SD, triplicate
T2 construct: selected in order to use the most native (i.e., closest to in vivo) forms of HO-1 and HO-2; from tissue; host or cells: brain microsomal fraction of male Sprague-Dawley rats
T2 sequence (P23711 1-315): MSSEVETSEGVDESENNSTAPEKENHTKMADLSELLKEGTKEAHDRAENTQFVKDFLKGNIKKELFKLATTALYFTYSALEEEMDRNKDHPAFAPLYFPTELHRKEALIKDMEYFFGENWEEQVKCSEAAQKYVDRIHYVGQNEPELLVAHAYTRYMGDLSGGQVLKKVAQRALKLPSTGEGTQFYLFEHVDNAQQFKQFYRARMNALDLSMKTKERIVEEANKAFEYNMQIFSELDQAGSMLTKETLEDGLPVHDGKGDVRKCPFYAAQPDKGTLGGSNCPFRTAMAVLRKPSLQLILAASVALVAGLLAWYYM
Method: HO-1 and HO-2 were obtained from rat spleen and brain, respectively, as the microsomal fraction prepared by differential centrifugation; the dominance of HO-1 protein in the rat spleen and of HO-2 in the rat brain has been well documented. These particular microsomal preparations were selected in order to use the most native (i.e., closest to in vivo) forms of HO-1 and HO-2. Spleen and brain (Sprague–Dawley rats) microsomal fractions were prepared according to the procedure outlined by Ryter et al.. The experiments reported in the present paper complied with current Italian law and met the guidelines of the Institutional Animal Care and Use Committee of University of Catania (Italy). The experiments were performed in male Sprague–Dawley albino rats (150 g body weight and age 45 d). […] Protein concentration of the microsomal fraction was determined by Lowry method.
as §3, §4

For `Nc1ccc(SC[C@@H]2CO[C@](CCc3ccc(Cl)cc3)(Cn3ccnc3)O2)cc1` [Azalanstat], the IC50 (HO-2 [1]) is given as 24.4 µM and the IC50 (HO-1 [2]) is given as 5.3 µM.

`OC(Cn1ccnc1)c1cccc(Br)c1` (stereo not drawn) [Compound 1] gave an IC50 (MDA-MB-231 cells) of 82.6 ± 0.57 µM, an IC50 (PC3 cells) of 165 ± 2.8 µM and an IC50 (B16 cells; Mus musculus, B16, 72 h) of 42 µM. The “Cytotoxic effect in combination with doxorubicin” value (B16 cells; compound 1 (10 μM) with doxorubicin (5 μM), B16 cells) was “synergistic cytotoxic effect”, the IC50 (B16 cells) was 37 ± 7.25 µM and the IC50 (HEK cells; HEK293, non-cancerous human embryonic kidney cells, 72 h, SRB) was 364 ± 21.3 µM. The “Selectivity for cancer cells with respect to healthy cells” value (HEK cells; cancer cell lines vs HEK) was 2–10 fold, the IC50 (MCF-7 cells) was 52.6 ± 3.76 µM and the IC50 (LnCap cells) was 158 ± 2.3 µM. It also gave an IC50 (DU145 cells) of 138 ± 2.7 µM.

In the case of `Brc1cccc(C(Cn2ccnc2)OCc2ccccc2)c1` (stereo not drawn) [Compound 2, 1-[2-(3-Bromophenyl)-2-(phenylmethoxy)ethyl]-1H-imidazole], the IC50 (HO-1 [3]) is reported as 80 ± 3.3 µM and the “fold less potent towards HO-1 than parent compound 1” value (HO-1 [3]; ratio of HO-1 IC50 values) is reported as “around 200 fold”.

In the case of `O=C(Cn1ccnc1)NC(c1ccccc1)c1ccccc1` [Compound 3, N-Benzhydryl-2-(1H-imidazol-1-yl)acetamide], the melting point is reported as 196 to 197 °C, the IC50 (HO-1 [3]) is reported as 28.8 ± 1.4 µM and the IC50 (HO-2 [4]) is reported as 14.4 ± 0.9 µM.

`OC(Cn1ccnc1)C12CC3CC(CC(C3)C1)C2` (stereo not drawn) [Compound 4, 2-(1H-Imidazol-1-yl)-1-tricyclo[3.3.1.13,7]dec-1-yl-ethanol] gave a melting point of 182 to 183 °C and an IC50 (HO-1 [3]) of 67.6 ± 2.1 µM.

In the case of `Clc1ccc(CCC2(Cn3ccnc3)OCCO2)cc1` [QC-15], the IC50 (HO-2 [1]) is listed as greater than 100 µM and the IC50 (HO-1 [2]) is listed as 2.8 µM.

For `FC(F)(F)c1ccc(SC[C@@H]2CO[C@@](CCc3ccc(Cl)cc3)(Cn3ccnc3)O2)nc1` [QC-80], the IC50 (HO-2 [1]) is given as 16 µM and the IC50 (HO-1 [2]) is given as 2.1 µM.

In the case of `O=C(Cn1ccnc1)C12CC3CC(CC(C3)C1)C2` [QC-82], the IC50 (HO-2 [1]) is listed as greater than 100 µM and the IC50 (HO-1 [2]) is listed as 3 µM.

In the case of `O=C(CCc1ccccc1)Cn1cncn1` [QC-86], the IC50 (HO-2 [1]) is given as 18 µM.

For `O=C(CC(c1ccccc1)c1ccccc1)Cn1ccnc1` [QC-308], the IC50 (HO-2 [1]) is given as […].
